# Reference: the supplement of paper PMC10011410
# ± gives the standard deviation of the averaged measurements.
# Tests used:
# U-2 OS [1] = experiment: intracellular GSH:GSSG ratio (calculated); higher = more reduced glutathione pool; conditions: 24 h
# Description: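 Intracellular glutathione in U-2 OS cells after 24 h compound treatment at 5, 10 and 20 uM (some at 40 and 80 uM). Total glutathione and GSSG were measured with the GSH/GSSG-Glo kit, and the GSH:GSSG ratio was calculated. Mean of five technical replicate plates.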
# U-2 OS [2] = experiment: cell viability (CellTiter-Glo) relative to DMSO (% of control); higher = more viable; conditions: 24 h
# Description: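 Cell viability of U-2 OS cells by CellTiter-Glo after 24 h compound treatment at 5, 10 and 20 uM (some at 40 and 80 uM), measured in parallel with the glutathione assay, as percent of DMSO control. Five technical replicate plates, averaged.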
# U-2 OS [3] = experiment: relative cell count vs DMSO (cell painting) (fraction of DMSO control); higher = more cells remaining (less cytotoxic); conditions: 24 h
# In short: (§1)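 Cell painting used U-2 OS cells at about 1,500 per well in 384-well plates, treated by pin tool for 24 h at 37 °C, usually at six 2-fold concentrations from 20 μM to 625 nM. Cells were stained with MitoTracker, concanavalin A, phalloidin, wheat germ agglutinin, Hoechst and SYTO 14 and imaged on an Opera Phenix. Features were extracted with CellProfiler and normalized to DMSO cells on the same plate. The activity score is the Mahalanobis distance from DMSO wells; cell count is relative to DMSO wells. Values are means of four replicate plates.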
# U-2 OS [4] = experiment: cell painting activity score (Mahalanobis distance from DMSO wells); higher = stronger morphological phenotype; conditions: 24 h
# In short: as §1
# U-2 OS [5] = experiment: total intracellular glutathione (GSH + GSSG) relative to DMSO (% of control); higher = more glutathione; conditions: 24 h
# Description: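 Total intracellular glutathione (GSH + GSSG) in U-2 OS cells by GSH/GSSG-Glo after 24 h compound treatment at 5, 10 and 20 uM (some at 40 and 80 uM), as percent of DMSO control. Five technical replicate plates, averaged.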
# U-2 OS [6] = experiment: AUC of culture confluence over time (live-cell imaging) (AUC (confluence % x time)); higher = more confluent culture (less growth inhibition)
# In short: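 The value is the area under the curve of confluence plotted against time. U-2 OS cells in F-12K medium with 10% FBS were seeded at 750 per well in 384-well plates, then treated by pin tool 24 h later, most compounds at 20, 10 and 5 μM with 0.2% DMSO. At 37 °C, an Incucyte S3 with a 10x objective imaged the wells every 4 h for up to 60 h.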
SMILES,intracellular GSH:GSSG ratio (U-2 OS [1]; 5 µM),intracellular GSH:GSSG ratio (U-2 OS [1]; 10 µM),intracellular GSH:GSSG ratio (U-2 OS [1]; 20 µM),cell viability (U-2 OS [2]; 5 µM),cell viability (U-2 OS [2]; 10 µM),cell viability (U-2 OS [2]; 20 µM),relative cell count (U-2 OS [3]; 0.625 µM),relative cell count (U-2 OS [3]; 1.25 µM),relative cell count (U-2 OS [3]; 2.5 µM),relative cell count (U-2 OS [3]; 5 µM),relative cell count (U-2 OS [3]; 10 µM),relative cell count (U-2 OS [3]; 20 µM),cell painting activity score (U-2 OS [4]; 0.625 µM),cell painting activity score (U-2 OS [4]; 1.25 µM),cell painting activity score (U-2 OS [4]; 2.5 µM),cell painting activity score (U-2 OS [4]; 5 µM),cell painting activity score (U-2 OS [4]; 10 µM),cell painting activity score (U-2 OS [4]; 20 µM),total intracellular glutathione (U-2 OS [5]; 5 µM),total intracellular glutathione (U-2 OS [5]; 10 µM),total intracellular glutathione (U-2 OS [5]; 20 µM),intracellular GSH:GSSG ratio (U-2 OS [1]; 40 µM),intracellular GSH:GSSG ratio (U-2 OS [1]; 80 µM),cell viability (U-2 OS [2]; 40 µM),cell viability (U-2 OS [2]; 80 µM),total intracellular glutathione (U-2 OS [5]; 40 µM),total intracellular glutathione (U-2 OS [5]; 80 µM),AUC of culture confluence over time (U-2 OS [6]; 5 µM),AUC of culture confluence over time (U-2 OS [6]; 10 µM),AUC of culture confluence over time (U-2 OS [6]; 20 µM),AUC of culture confluence over time (U-2 OS [6]; 40 µM),AUC of culture confluence over time (U-2 OS [6]; 80 µM),relative cell count (U-2 OS [3]; 40 µM),relative cell count (U-2 OS [3]; 80 µM),cell painting activity score (U-2 OS [4]; 40 µM),cell painting activity score (U-2 OS [4]; 80 µM)
Oc1cccc(-c2nc(N3CCOCC3)c3oc4ncccc4c3n2)c1,22.3,19.6,20.9,58.4 ± 1.5,56.8 ± 2.5,55.17 ± 0.53,0.904,0.875,0.774,0.734,0.738,0.682,9.68,11.3,11.4,11.6,10,11.3,58.8 ± 2.2,60.1 ± 3.8,58.6 ± 2.4,,,,,,,,,,,,,,,
C=CC(=O)N1CCN(c2ncnc3c(F)c(-c4c(O)cccc4F)c(Cl)cc23)CC1,18.9,16.4,11.6,91.3 ± 4.4,89.2 ± 6.2,100 ± 6.9,0.691,0.719,0.571,0.555,0.531,0.516,10.3,8.82,11.4,11,11.8,16,105 ± 3.9,104 ± 3.3,102 ± 3.2,,,,,,,,,,,,,,,
CC1=NN(c2ccc(C(=O)O)cc2)C(=O)/C1=C\c1ccc(-c2cc(C)c(C)cc2[N+](=O)[O-])o1,27.1,21.9,23.1,91.3 ± 6.4,91.1 ± 2.4,96.4 ± 7.8,0.893,0.944,0.894,0.904,0.854,0.787,5.05,4.06,4.65,6.01,14.4,15,96 ± 2.5,105 ± 3.6,101 ± 4,20,18.3,107 ± 8.1,90.6 ± 5.9,102 ± 7.7,102 ± 5.6,,,,,,,,,
O=C1CC(Sc2nnnn2-c2ccccc2)C(=O)N1c1ccc([N+](=O)[O-])cc1 (centres undefined),26,17,7.14,102 ± 5.5,104 ± 5.8,46.2 ± 11,1.06,1.07,1.12,1.01,0.828,0.677,4.41,4.65,4.9,6.88,12.5,18.1,117 ± 6.5,122 ± 5.5,61.8 ± 13,,,,,,,,,,,,,,,
C=C1C(=O)O[C@H](CCC)[C@H]1C(=O)O,21.5,22.5,22.9,91.7 ± 2.8,98.6 ± 6,95.5 ± 5.5,1.06,1.04,1.06,0.973,1.07,1.01,3.78,4.58,3.59,4.83,3.69,5.28,95.1 ± 3.1,90.6 ± 6.3,94.2 ± 5.9,25.2,20.4,105 ± 3.7,105 ± 7.9,97.6 ± 5.4,100 ± 4,,,,,,,,,
NC1CS(=O)(=O)c2ccccc21 (centres undefined),3.24,,,56.6 ± 6.3,58 ± 7.3,56.7 ± 7.8,0.986,1.06,1.06,1.07,1.06,1.04,4.42,4.19,4.72,3.88,3.43,4.56,51.9 ± 5.3,51.6 ± 4.8,45.5 ± 3.2,,,,,,,,,,,,,,,
COc1cc(/C=C/c2cc(/C=C/c3ccc(O)c(OC)c3)n(-c3ccc(C(=O)[O-])cc3)n2)ccc1O.[Na+],40,33,36.1,101 ± 2.3,95.6 ± 2.5,93.6 ± 3.2,1.04,1.08,1.05,1.07,1.09,1.05,7.1,4.98,6.19,4.45,6.38,6.87,,,,30.8,11.8,89.6 ± 3.4,68.4 ± 3.8,,,45.1,42.2,42.1,27.3,25.3,0.866,0.789,5.98,9
O=[N+]([O-])c1c(Sc2ncnc3nc[nH]c23)cc(Cl)c2nsnc12,9.07,1.18,2.18,41.6 ± 9.6,5.86 ± 1.9,12 ± 2.9,0.924,0.936,0.903,0.912,0.96,0.913,3.42,4.43,4.96,4.68,3.76,3.8,74 ± 19,32.4 ± 4.7,43.3 ± 3.9,,,,,,,,,,,,,,,
O=C1C(NCCN2CCOCC2)=C(Cl)C(=O)c2ncccc21,,,,0.456 ± 0.11,0.267 ± 0.043,0.463 ± 0.11,0.572,0.496,0.191,0.0808,0.0881,0.111,13.7,13.9,19.1,25.9,25.2,24.1,2.27 ± 0.32,1.68 ± 0.27,2.13 ± 0.32,,,,,,,13.2,12.9,13,,,,,,
CC1=CC(=O)c2ccccc2C1=O,17.1,2.21,1.63,40 ± 5.8,1.01 ± 0.2,1.22 ± 0.21,0.971,0.921,0.979,0.89,0.643,0.277,4.82,3.53,4.48,6.92,10.5,17.1,36.9 ± 4.5,4.53 ± 0.61,3.31 ± 0.24,0.957,2.69,1.15 ± 0.15,0.692 ± 0.12,2.94 ± 0.44,2.93 ± 0.45,,,,,,,,,
CCCC[S@](=N)(=O)CC[C@H](N)C(=O)O,,,,101 ± 5.1,99.5 ± 3.6,95 ± 4.3,0.986,1.04,0.992,1.04,1.01,1.06,3.99,4.5,4.98,4.52,4,4.46,19.6 ± 2,16.8 ± 2.1,14.1 ± 1.3,,,101 ± 6.9,106 ± 4,11 ± 1.6,10.7 ± 1,,,,,,,,,
CCOc1ccccc1-n1c(C(C)N2CCN(C(=O)COc3ccc(Cl)cc3)CC2)nc2ccccc2c1=O (centres undefined),,,,102 ± 3.5,95.2 ± 4.2,40.6 ± 14,0.983,0.945,0.996,0.969,0.922,0.508,6.32,5.84,6.59,9.13,10.4,14.2,10.4 ± 0.54,2.5 ± 0.32,1.15 ± 0.16,,,,,,,45,40,39.9,,,,,,
COc1cc([C@@H]2c3cc4c(cc3[C@H](O)[C@H]3COC(=O)[C@H]23)OCO4)cc(OC)c1OC,,,,,,,0.209,0.195,0.195,0.199,0.187,0.179,23.6,24.1,23.9,21,21,22,,,,,,,,,,15.2,15.6,20.8,,,,,,
Cc1csc(=NC2CCCCC2)n1/N=C/c1ccc(O)c(O)c1O,,,,,,,1.01,1.01,0.985,1,1.02,0.405,6.78,7.67,6,5.67,5.75,7.13,,,,,,,,,,49.7,53.9,40.5,,,,,,
O=C(c1ccc(/C=C/c2n[nH]c3ccccc23)cc1)N1CCNCC1,,,,,,,1.02,0.914,0.649,0.572,0.532,0.526,9.05,12,17.9,19.2,18.8,18.8,,,,,,,,,,28.9,32.6,26.8,,,,,,
CNc1nc(-c2ccccc2)[n+](-c2ccccc2)s1,,,,,,,1,1.03,0.994,0.992,0.516,0.0974,2.89,2.97,3.6,3.74,6.88,14.5,,,,,,,,,,36,44.4,42.5,,,,,,
